Several values for one entry are separate records, joined by “and”; a condition that tells them apart may be missing. Identical values can stand only once.
Test system: Clostridium acetobutylicum strain ATCC 824
Assay: Sequential batch transfer in 24-well culture plates (butanol, residual glucose, butanol yield and productivity)
Assay type: cell-based
Details: for Butanol: Experiment 1; for Residual glucose concentration: initial glucose 60 g/L
Description: Each well contained 1.5 mL of growth medium. Peptide was added to each well at the indicated concentration (0, 25, 50, and 100 nM). Every 24 hours fresh medium and peptide treatment were added to a new column of wells then 1.5 μL of the previous day culture was transferred to the new well. Wells were harvested for glucose and butanol analysis after 96 hours of growth. Transfers 1, 4, 7, 10, 13, 16, […].
Briefly, Clostridium spores were germinated in a suitable growth medium for 18-24 hours then […] was transferred to 1.5 mL of fresh medium in each of four wells on a 24-well culture plate. Three of the wells had been treated with 25 nM, 50 nM and 100 nM of peptide, respectively while the fourth well was untreated. Thereafter, every 24 hours […] of each subculture was transferred to 1.5 mL of fresh medium that contained the same peptide treatment or no treatment. Transfers of successive subcultures were done for 24 days, and each subculture was grown for 96 hours before being harvested. Culture supernatants were recovered following centrifugation and were analyzed for butanol and residual glucose concentrations. Determination of optimum peptide treatment levels was based on a graphical comparison of the concentration of butanol in each of the four culture wells for sequential transfers 1, 4, 7, 10, 13, 16, 19, 22 and 24.
Clostridium acetobutylicum strain ATCC 824 was used in all experiments and the growth medium used for sequential batch transfer, time course, and continuous culture experiments contained yeast extract, casamino acids, L-cysteine, L-asparagine, phosphate buffer, trace minerals, and 6% glucose. What are believed to be quorum-sensing peptides that were used in the experiments were chemically synthesized peptides SEQ ID NO: 143 (amino acid sequence: SYPGWSW) and SEQ ID NO: 144 (amino acid sequence: ILILISG). Routine growth of the bacteria as well as the sequential batch and time course experiments were conducted in a Form a Scientific Model 1029 anaerobic gas chamber at 32° C. Continuous cultures were performed at 32° C. using duplicate New Brunswick Scientific BioFlo 3000 apparati with a dilution rate of 0.01 volume per hour, 75 rpm agitation, and nitrogen gas sparging. Optical density of culture samples was measured at 600 nm in a Beckman DU 600 series spectrophotometer and glucose was analyzed using a YSI Model 2700 Select Biochemistry Analyzer with internal glucose calibration. Butanol concentrations were determined by measuring experimental and standard samples using a Varian Saturn 3 Gas Chromatograph/Mass Spectrometer and calculating butanol concentrations using standard curves.
(§1) Sequential batch transfer experiments were carried out in 24-well culture plates that contained 1.5 mL of medium per well. Peptide was added to each well at the indicated concentrations of 0 nM (control), 25 nM, 50 nM, or 100 nM. Every 24 hours, fresh medium and peptide treatments were added to a new column of wells. Then, 1.5 uL of the previous day culture was transferred to the new well. Wells were harvested for glucose and butanol analysis after 96 hours of growth; transfers 1, 4, 7, 10, 13, 16, 19, 22, and 24 were analyzed. Two representative experiments are shown in Tables 30 and 31 and FIGS. 14 and 15.
as §1, with “32” for “30”, “33” for “31”, “16” for “14”, “17.” for “15.”

[1] = 50 nM, transfer 10, first experiment, after 96 hours of culture
[2] = 50 nM, transfer 13, first experiment, after 96 hours of culture
[3] = 50 nM, transfer 16, first experiment, after 96 hours of culture
[4] = 50 nM, transfer 19, first experiment, after 96 hours of culture
[5] = 50 nM, transfer 22, first experiment, after 96 hours of culture
[6] = 50 nM, transfer 24, first experiment, after 96 hours of culture
[7] = 100 nM peptide, transfer 1, after 96 hours of culture, Expt. 2 (repeat)
[8] = 100 nM peptide, transfer 4, after 96 hours of culture, Expt. 2 (repeat)
[9] = 100 nM peptide, transfer 7, after 96 hours of culture, Expt. 2 (repeat)
[10] = 100 nM peptide, transfer 10, after 96 hours of culture, Expt. 2 (repeat)
[11] = 100 nM peptide, transfer 13, after 96 hours of culture, Expt. 2 (repeat)
[12] = 100 nM peptide, transfer 16, after 96 hours of culture, Expt. 2 (repeat)
[13] = 100 nM peptide, transfer 19, after 96 hours of culture, Expt. 2 (repeat)
[14] = 100 nM peptide, transfer 22, after 96 hours of culture, Expt. 2 (repeat)
[15] = 100 nM peptide, transfer 24, after 96 hours of culture, Expt. 2 (repeat)
[16] = 100 nM, transfer 1, first experiment, after 96 hours of culture
[17] = 100 nM, transfer 4, first experiment, after 96 hours of culture
[18] = 100 nM, transfer 7, first experiment, after 96 hours of culture
[19] = 100 nM, transfer 10, first experiment, after 96 hours of culture
[20] = 100 nM, transfer 13, first experiment, after 96 hours of culture
[21] = 100 nM, transfer 16, first experiment, after 96 hours of culture
[22] = 100 nM, transfer 19, first experiment, after 96 hours of culture
[23] = 100 nM, transfer 22, first experiment, after 96 hours of culture
[24] = 100 nM, transfer 24, first experiment, after 96 hours of culture
[25] = BP110517 first experiment, 25 nM, transfers 19, 22 and 24
[26] = BP110517 first experiment, 50 nM, transfer 10

SYPGWSW [peptide SEQ ID NO: 143]
Butanol (50 nM, transfer 10, after 96 hours of culture, listed as BP110517): 13.7 g/L and 13.66 g/L | Butanol productivity [1]: 0.14 g butanol/L-h | Butanol yield [1]: 0.23 g butanol/g/glucose | Residual glucose concentration [1]: 0.1 g/L | Butanol (50 nM, transfer 13, after 96 hours of culture): 10.28 g/L | Butanol productivity [2]: 0.11 g butanol/L-h | Butanol yield [2]: 0.17 g butanol/g/glucose | Residual glucose concentration [2]: 0.1 g/L | Butanol (50 nM, transfer 16, after 96 hours of culture): 10.95 g/L | Butanol productivity [3]: 0.11 g butanol/L-h | Butanol yield [3]: 0.18 g butanol/g/glucose | Residual glucose concentration [3]: 0.1 g/L | Butanol (50 nM, transfer 19, after 96 hours of culture): 3.96 g/L | Butanol productivity [4]: 0.04 g butanol/L-h | Butanol yield [4]: 0.07 g butanol/g/glucose | Residual glucose concentration [4]: 47.6 g/L | Butanol (50 nM, transfer 22, after 96 hours of culture): 5.35 g/L | Butanol productivity [5]: 0.06 g butanol/L-h | Butanol yield [5]: 0.09 g butanol/g/glucose | Residual glucose concentration [5]: 45.9 g/L | Butanol (50 nM, transfer 24, after 96 hours of culture): 4.70 g/L | Butanol productivity [6]: 0.05 g butanol/L-h | Butanol yield [6]: 0.08 g butanol/g/glucose | Residual glucose concentration [6]: 50.2 g/L | Butanol concentration [7]: 0.62 g/L | Butanol productivity [7]: 0.01 g butanol/L-h | Butanol yield [7]: 0.01 g butanol/g/glucose | Residual glucose concentration [7]: 55.6 g/L | Butanol concentration [8]: 1.50 g/L | Butanol productivity [8]: 0.02 g butanol/L-h | Butanol yield [8]: 0.03 g butanol/g/glucose | Residual glucose concentration [8]: 49.3 g/L | Butanol concentration [9]: 4.10 g/L | Butanol productivity [9]: 0.04 g butanol/L-h | Butanol yield [9]: 0.07 g butanol/g/glucose | Residual glucose concentration [9]: 0.1 g/L | Butanol concentration [10]: 7.37 g/L | Butanol productivity [10]: 0.08 g butanol/L-h | Butanol yield [10]: 0.13 g butanol/g/glucose | Residual glucose concentration [10]: 0.1 g/L | Butanol concentration [11]: 5.60 g/L | Butanol productivity [11]: 0.06 g butanol/L-h | Butanol yield [11]: 0.10 g butanol/g/glucose | Residual glucose concentration [11]: 0.1 g/L | Butanol concentration [12]: 7.51 g/L | Butanol productivity [12]: 0.08 g butanol/L-h | Butanol yield [12]: 0.13 g butanol/g/glucose | Residual glucose concentration [12]: 0.1 g/L | Butanol concentration [13]: 4.03 g/L | Butanol productivity [13]: 0.04 g butanol/L-h | Butanol yield [13]: 0.07 g butanol/g/glucose | Residual glucose concentration [13]: 0.1 g/L | Butanol concentration [14]: 5.05 g/L | Butanol productivity [14]: 0.05 g butanol/L-h | Butanol yield [14]: 0.09 g butanol/g/glucose | Residual glucose concentration [14]: 0.1 g/L | Butanol concentration [15]: 3.42 g/L | Butanol productivity [15]: 0.04 g butanol/L-h | Butanol yield [15]: 0.06 g butanol/g/glucose | Residual glucose concentration [15]: 0.1 g/L | Butanol (100 nM, transfer 1, after 96 hours of culture): 1.14 g/L | Butanol productivity [16]: 0.01 g butanol/L-h | Butanol yield [16]: 0.02 g butanol/g/glucose | Residual glucose concentration [16]: 48.3 g/L | Butanol (100 nM, transfer 4, after 96 hours of culture): 6.97 g/L | Butanol productivity [17]: 0.07 g butanol/L-h | Butanol yield [17]: 0.12 g butanol/g/glucose | Residual glucose concentration [17]: 0.1 g/L | Butanol (100 nM, transfer 7, after 96 hours of culture): 7.33 g/L | Butanol productivity [18]: 0.08 g butanol/L-h | Butanol yield [18]: 0.12 g butanol/g/glucose | Residual glucose concentration [18]: 0.1 g/L | Butanol (100 nM, transfer 10, after 96 hours of culture): 11.33 g/L | Butanol productivity [19]: 0.12 g butanol/L-h | Butanol yield [19]: 0.19 g butanol/g/glucose | Residual glucose concentration [19]: 0.1 g/L | Butanol (100 nM, transfer 13, after 96 hours of culture): 7.22 g/L | Butanol productivity [20]: 0.08 g butanol/L-h | Butanol yield [20]: 0.12 g butanol/g/glucose | Residual glucose concentration [20]: 0.1 g/L | Butanol (100 nM, transfer 16, after 96 hours of culture): 9.59 g/L | Butanol productivity [21]: 0.10 g butanol/L-h | Butanol yield [21]: 0.16 g butanol/g/glucose | Residual glucose concentration [21]: 0.1 g/L | Butanol (100 nM, transfer 19, after 96 hours of culture): 4.76 g/L | Butanol productivity [22]: 0.05 g butanol/L-h | Butanol yield [22]: 0.08 g butanol/g/glucose | Residual glucose concentration [22]: 0.1 g/L | Butanol (100 nM, transfer 22, after 96 hours of culture): 6.85 g/L | Butanol productivity [23]: 0.07 g butanol/L-h | Butanol yield [23]: 0.11 g butanol/g/glucose | Residual glucose concentration [23]: 0.1 g/L | Butanol (100 nM, transfer 24, after 96 hours of culture): 4.67 g/L | Butanol productivity [24]: 0.05 g butanol/L-h | Butanol yield [24]: 0.08 g butanol/g/glucose | Residual glucose concentration [24]: 0.1 g/L | Transfers over which butanol production was enhanced (BP110517, sequential batch cultures (summary of findings)): transfer 4 through transfer 19 | Butanol yield and productivity greater than untreated control (BP110517 first experiment, 25 nM, transfer 4): 23% | Butanol yield and productivity greater than untreated control (BP110517 first experiment, 25 nM, transfer 16): 24% | Decrease of butanol concentration below that of controls [25]: 20% | Reduction in glucose utilization [25]: 80% | Butanol yield and productivity greater than untreated control (BP110517 first experiment, 50 nM, transfer 4): 20% | Butanol productivity [26]: 0.14 g butanol/1-hour | Butanol yield [26]: 0.23 g butanol/g glucose | Butanol yield and productivity greater than untreated control [26]: 46% | Butanol yield and productivity greater than untreated control (BP110517 first experiment, 50 nM, transfer 16): 16% | Effect on butanol production versus untreated control (BP110517 first experiment, 100 nM, except at transfer 10): generally resulted in decreased butanol production, or no difference from the untreated control | Glucose consumption (BP110517 first experiment, all treated and untreated cultures, transfer 4 through transfer 16): ~100% | Increase in butanol over untreated control (SEQ ID NO: 143 first experiment, 25 nM, transfer 4): ~25% | Increase in butanol over untreated control (SEQ ID NO: 143 first experiment, 25 nM, transfer 4, listed as BP110517): 23% | Increase in butanol over untreated control (SEQ ID NO: 143 first experiment, 25 nM, transfer 16): 24% | Increase in butanol over untreated control (SEQ ID NO: 143 first experiment, 50 nM, transfer 4): ~25% | Increase in butanol over untreated control (SEQ ID NO: 143 first experiment, 50 nM, transfer 4, listed as BP110517): 20% | Increase in butanol over untreated control (SEQ ID NO: 143 first experiment, 50 nM, transfer 10): 46% | Increase in butanol over untreated control (SEQ ID NO: 143 first experiment, 50 nM, transfer 16): 16% | Increase in butanol over untreated control (SEQ ID NO: 143 first experiment, 100 nM, transfer 10): 21% | Increase in butanol over untreated control (SEQ ID NO: 143 second experiment, 50 nM, transfer 10): more than 200% | Increase in butanol over untreated control (SEQ ID NO: 143 second experiment, 50 nM, transfer 10, listed as BP110517): 223% | Increase in butanol over untreated control (SEQ ID NO: 143 second experiment, 50 nM, transfer 13): 289% | Increase in butanol over untreated control (SEQ ID NO: 143 second experiment, 50 nM, transfer 16): 170% | Increase in butanol over untreated control (SEQ ID NO: 143 second experiment, 100 nM, transfer 10): more than 200% | Effect on differentiation and butanol production (sequential and continuous cultures): inducer of differentiation and butanol production
